# Reference: patent US10344060B2 (priority 2013, dated 2019)
# Where two headings read alike, the source gives them in different places.
# Biological target: hNav1.7 (Homo sapiens, UniProt Q15858)
# Test: cell-based
# Assay type: cell-based
# Settings: for IC50: read-out: PX hNav1.7 Tonic IC50; for Nav1.4/Nav1.7 / Nav1.5/Nav1.7: ratio of PX tonic IC50 values, Table 11
# Sequence of hNav1.7 (Q15858 whole entry): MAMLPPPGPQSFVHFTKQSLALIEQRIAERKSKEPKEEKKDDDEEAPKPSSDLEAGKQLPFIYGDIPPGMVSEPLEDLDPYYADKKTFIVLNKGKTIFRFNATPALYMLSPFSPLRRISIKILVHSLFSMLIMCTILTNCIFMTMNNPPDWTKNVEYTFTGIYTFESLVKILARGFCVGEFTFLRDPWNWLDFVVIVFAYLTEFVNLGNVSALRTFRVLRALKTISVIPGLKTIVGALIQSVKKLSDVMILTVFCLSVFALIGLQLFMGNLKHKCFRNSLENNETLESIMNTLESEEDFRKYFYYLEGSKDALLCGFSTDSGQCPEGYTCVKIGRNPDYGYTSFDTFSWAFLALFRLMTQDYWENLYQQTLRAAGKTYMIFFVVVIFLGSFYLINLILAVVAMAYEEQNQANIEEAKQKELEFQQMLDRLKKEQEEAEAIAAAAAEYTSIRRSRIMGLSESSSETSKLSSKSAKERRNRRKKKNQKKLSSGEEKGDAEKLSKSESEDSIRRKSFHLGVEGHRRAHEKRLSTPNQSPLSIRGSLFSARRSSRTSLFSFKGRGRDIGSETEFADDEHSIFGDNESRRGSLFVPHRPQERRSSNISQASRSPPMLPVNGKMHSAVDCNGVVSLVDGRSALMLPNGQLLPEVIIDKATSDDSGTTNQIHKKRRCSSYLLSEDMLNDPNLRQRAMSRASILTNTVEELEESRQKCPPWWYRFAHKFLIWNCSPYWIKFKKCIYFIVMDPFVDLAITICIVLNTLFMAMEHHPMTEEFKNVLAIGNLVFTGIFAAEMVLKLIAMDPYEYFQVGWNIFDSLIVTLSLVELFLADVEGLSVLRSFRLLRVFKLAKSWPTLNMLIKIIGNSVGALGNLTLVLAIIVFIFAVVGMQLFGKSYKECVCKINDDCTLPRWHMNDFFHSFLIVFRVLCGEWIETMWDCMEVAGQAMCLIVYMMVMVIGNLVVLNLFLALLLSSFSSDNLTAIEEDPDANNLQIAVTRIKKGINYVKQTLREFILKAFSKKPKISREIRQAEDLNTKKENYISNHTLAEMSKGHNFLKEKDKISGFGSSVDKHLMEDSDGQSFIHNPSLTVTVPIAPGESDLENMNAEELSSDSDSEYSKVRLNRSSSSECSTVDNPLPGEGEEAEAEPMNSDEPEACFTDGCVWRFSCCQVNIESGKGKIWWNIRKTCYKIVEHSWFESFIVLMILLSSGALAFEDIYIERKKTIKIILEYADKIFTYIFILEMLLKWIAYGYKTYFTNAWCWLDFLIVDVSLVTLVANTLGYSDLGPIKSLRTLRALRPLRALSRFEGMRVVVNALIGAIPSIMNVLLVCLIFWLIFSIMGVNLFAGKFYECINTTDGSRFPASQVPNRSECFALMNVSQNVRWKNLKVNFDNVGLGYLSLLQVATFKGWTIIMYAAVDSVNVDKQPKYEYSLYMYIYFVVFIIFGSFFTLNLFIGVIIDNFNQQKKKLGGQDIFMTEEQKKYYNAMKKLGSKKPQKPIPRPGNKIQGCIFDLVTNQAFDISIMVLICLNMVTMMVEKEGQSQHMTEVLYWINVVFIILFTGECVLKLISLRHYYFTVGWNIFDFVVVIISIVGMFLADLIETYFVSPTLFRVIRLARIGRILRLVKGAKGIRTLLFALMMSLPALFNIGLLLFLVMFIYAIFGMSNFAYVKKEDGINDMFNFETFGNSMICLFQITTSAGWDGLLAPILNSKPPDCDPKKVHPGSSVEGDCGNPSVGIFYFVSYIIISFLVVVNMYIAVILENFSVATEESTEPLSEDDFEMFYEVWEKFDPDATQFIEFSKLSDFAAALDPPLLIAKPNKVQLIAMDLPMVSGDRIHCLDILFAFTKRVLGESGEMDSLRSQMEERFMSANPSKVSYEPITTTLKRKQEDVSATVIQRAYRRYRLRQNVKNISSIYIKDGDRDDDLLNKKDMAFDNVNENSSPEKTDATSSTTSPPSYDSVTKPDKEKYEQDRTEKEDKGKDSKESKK
SMILES,"IC50 (Table 12, PatchXpress, tonic block) [nM]",Nav1.4/Nav1.7,Nav1.5/Nav1.7,IC50 [nM]
C#CC[C@H](N)C(=O)N[C@@H](Cc1ccc(O)cc1)C(=O)N[C@H]1CSSC[C@@H]2NC(=O)[C@@H]3CSSC[C@@H](C(=O)N[C@@H](CCCNC(=N)N)C(=O)N[C@@H](CCCCN)C(=O)N[C@H](C(=O)N[C@H](C(N)=O)[C@@H](C)CC)[C@@H](C)CC)NC(=O)[C@H](Cc4c[nH]c5ccccc45)NC(=O)[C@H](CC(C)C)NC(=O)[C@H](CCCCN)NC(=O)[C@H](CSSC[C@H](NC(=O)[C@H]([C@@H](C)O)NC(=O)[C@H](Cc4c[nH]c5ccccc45)NC(=O)[C@H](CCCC)NC(=O)[C@H](Cc4c[nH]c5ccccc45)NC(=O)[C@H](CCCCN)NC(=O)[C@H](CCC(N)=O)NC1=O)C(=O)N[C@@H](CC(=O)O)C(=O)N[C@@H](CO)C(=O)N[C@@H](CCCCN)C(=O)N[C@@H](CCCNC(=N)N)C(=O)N[C@@H](C)C(=O)N3)NC(=O)[C@H](Cc1ccc(O)cc1)NC(=O)[C@H](CC(C)C)NC(=O)CNC(=O)[C@H](CCC(=O)O)NC2=O [compound 682],5.98,–,–,–
CC[C@H](C)[C@H](NC(=O)[C@H](Cc1ccc(O)cc1)NC(=O)[C@H](CCCCN)NC(=O)[C@H](CCCNC(=N)N)NC(=O)[C@@H]1CSSC[C@@H]2NC(=O)[C@H](C)NC(=O)[C@H](CCCNC(=N)N)NC(=O)[C@H](CCCCN)NC(=O)[C@H](CO)NC(=O)[C@H](CC(=O)O)NC(=O)[C@@H]3CSSC[C@H](NC(=O)[C@H](CCC(=O)O)NC(=O)[C@H](CC(C)C)NC(=O)CNC(=O)[C@H](CCC(=O)O)NC(=O)[C@H](CSSC[C@H](NC(=O)[C@@H](N)Cc4ccc(O)cc4)C(=O)N[C@@H](CCC(N)=O)C(=O)N[C@@H](CCCCN)C(=O)N[C@@H](Cc4c[nH]c5ccccc45)C(=O)N[C@@H](CCSC)C(=O)N[C@@H](Cc4c[nH]c5ccccc45)C(=O)N[C@@H]([C@@H](C)O)C(=O)N3)NC2=O)C(=O)N[C@@H](CCCCN)C(=O)N[C@@H](CC(C)C)C(=O)N[C@@H](Cc2cccc3ccccc23)C(=O)N1)C(N)=O [compound 218],–,434,833,–
CCCC[C@@H]1NC(=O)[C@H](Cc2c[nH]c3ccccc23)NC(=O)[C@H](CCCCN)NC(=O)[C@H](CCC(N)=O)NC(=O)[C@@H](NC(=O)[C@H](Cc2ccc(O)cc2)NC(=O)CCN)CSSC[C@@H]2NC(=O)[C@@H]3CSSC[C@@H](C(=O)N[C@@H](CCCNC(=N)N)C(=O)N[C@@H](CCCCN)C(=O)N[C@H](C(=O)N[C@H](C(N)=O)[C@@H](C)CC)[C@@H](C)CC)NC(=O)[C@H](Cc4c[nH]c5ccccc45)NC(=O)[C@H](CC(C)C)NC(=O)[C@H](CCCCN)NC(=O)[C@H](CSSC[C@H](NC(=O)[C@H]([C@@H](C)O)NC(=O)[C@H](Cc4c[nH]c5ccccc45)NC1=O)C(=O)N[C@@H](CC(=O)O)C(=O)N[C@@H](CO)C(=O)N[C@@H](CCCCN)C(=O)N[C@@H](CCCNC(=N)N)C(=O)N[C@@H](C)C(=O)N3)NC(=O)[C@H](CCCNC(=N)N)NC(=O)[C@H](CC(C)C)NC(=O)CNC(=O)[C@H](CCC(=O)O)NC2=O [compound 376],–,3,731,–
CCCC[C@@H]1NC(=O)[C@H](Cc2c[nH]c3ccccc23)NC(=O)[C@H](CCCCN)NC(=O)[C@H](CCC(N)=O)NC(=O)[C@@H](NC(=O)[C@H](Cc2ccc(O)cc2)NC(=O)[C@@H](N)CC#N)CSSC[C@@H]2NC(=O)[C@@H]3CSSC[C@@H](C(=O)N[C@@H](CCCNC(=N)N)C(=O)N[C@@H](CCCCN)C(=O)N[C@@H](CCC(=O)O)C(=O)N[C@H](C(N)=O)[C@@H](C)CC)NC(=O)[C@H](Cc4c[nH]c5ccccc45)NC(=O)[C@H](CC(C)C)NC(=O)[C@H](CCCCN)NC(=O)[C@H](CSSC[C@H](NC(=O)[C@H]([C@@H](C)O)NC(=O)[C@H](Cc4c[nH]c5ccccc45)NC1=O)C(=O)N[C@@H](CC(=O)O)C(=O)N[C@@H](CO)C(=O)N[C@@H](CCCCN)C(=O)N[C@@H](CCCNC(=N)N)C(=O)N[C@@H](C)C(=O)N3)NC(=O)[C@H](CCCNC(=N)N)NC(=O)[C@H](CC(C)C)NC(=O)CNC(=O)[C@H](Cc1cn(CCCCCCCCCCCCCCC(=O)O)nn1)NC2=O [compound 895],–,–,–,260
CSCC[C@@H]1NC(=O)[C@H](Cc2c[nH]c3ccccc23)NC(=O)[C@H](CCCCN)NC(=O)[C@H](CCC(N)=O)NC(=O)[C@@H](NC(=O)[C@@H](N)Cc2ccc(O)cc2)CSSC[C@@H]2NC(=O)[C@@H]3CSSC[C@@H](C(=O)N[C@@H](CCCNC(=N)N)C(=O)N[C@@H](CCCCN)C(=O)N[C@@H](Cc4ccc(O)cc4)C(=O)N[C@@H](CC(C)C)C(N)=O)NC(=O)[C@H](Cc4c[nH]c5ccccc45)NC(=O)[C@H](CC(C)C)NC(=O)[C@H](CCCCN)NC(=O)[C@H](CSSC[C@H](NC(=O)[C@H]([C@@H](C)O)NC(=O)[C@H](Cc4c[nH]c5ccccc45)NC1=O)C(=O)N[C@@H](CC(=O)O)C(=O)N[C@@H](CO)C(=O)N[C@@H](CCCCN)C(=O)N[C@@H](CCCNC(=N)N)C(=O)N[C@@H](C)C(=O)N3)NC(=O)[C@H](CCC(=O)O)NC(=O)[C@H](CC(C)C)NC(=O)CNC(=O)[C@H](CCC(=O)O)NC2=O [compound 238],–,241,2817,–
CCCC[C@@H]1NC(=O)[C@H](Cc2c[nH]c3ccccc23)NC(=O)[C@H](CCCCN)NC(=O)[C@H](CCC(N)=O)NC(=O)[C@@H](NC(=O)[C@H](Cc2ccc(O)cc2)NC(=O)[C@@H](N)CC(C)C)CSSC[C@@H]2NC(=O)[C@@H]3CSSC[C@@H](C(=O)N[C@@H](CCCNC(=N)N)C(=O)N[C@@H](CCCCN)C(=O)N[C@H](C(=O)N[C@H](C(N)=O)[C@@H](C)CC)[C@@H](C)CC)NC(=O)[C@H](Cc4c[nH]c5ccccc45)NC(=O)[C@H](CC(C)C)NC(=O)[C@H](CCCCN)NC(=O)[C@H](CSSC[C@H](NC(=O)[C@H]([C@@H](C)O)NC(=O)[C@H](Cc4c[nH]c5ccccc45)NC1=O)C(=O)N[C@@H](CC(=O)O)C(=O)N[C@@H](CO)C(=O)N[C@@H](CCCCN)C(=O)N[C@@H](CCCNC(=N)N)C(=O)N[C@@H](C)C(=O)N3)NC(=O)[C@H](CCCNC(=N)N)NC(=O)[C@H](CC(C)C)NC(=O)CNC(=O)[C@H](CCC(=O)O)NC2=O [compound 361],–,0,0,–
CCCC[C@@H]1NC(=O)[C@H](Cc2c[nH]c3ccccc23)NC(=O)[C@H](CCCCN)NC(=O)[C@H](CCC(N)=O)NC(=O)[C@@H](NC(=O)[C@H](CCCCNC(=O)CCOCCOCCOCCOCCOCCOCCOCCOCCOCCOCCOCCOCCN)NC(=O)[C@@H](N)CC#N)CSSC[C@@H]2NC(=O)[C@@H]3CSSC[C@@H](C(=O)N[C@@H](CCCNC(=N)N)C(=O)N[C@@H](CCCCN)C(=O)N[C@@H](CCC(=O)O)C(=O)N[C@H](C(N)=O)[C@@H](C)CC)NC(=O)[C@H](Cc4c[nH]c5ccccc45)NC(=O)[C@H](CC(C)C)NC(=O)[C@H](CCCCN)NC(=O)[C@H](CSSC[C@H](NC(=O)[C@H]([C@@H](C)O)NC(=O)[C@H](Cc4c[nH]c5ccccc45)NC1=O)C(=O)N[C@@H](CC(=O)O)C(=O)N[C@@H](CO)C(=O)N[C@@H](CCCCN)C(=O)N[C@@H](CCCNC(=N)N)C(=O)N[C@@H](C)C(=O)N3)NC(=O)[C@H](CCCNC(=N)N)NC(=O)[C@H](CC(C)C)NC(=O)CNC(=O)[C@H](CCC(=O)O)NC2=O [compound 563],–,126,–,–
